Experimental findings from US20100298141A1, “SUBSTITUTED PYRIDINE N-OXIDE HERBICIDES” (E. I. DU PONT DE NEMOURS AND COMPANY, priority 2007, published 2010) are described below.

One test relates to sugarcane. Put plainly: Test F pre-/postemergence test. It is filed as in vivo, Saccharum officinarum. As to conditions: for Plant response rating, Sugarcane: preemergence, scale 0 to 100. The text has this: Seeds of plant species selected from bermudagrass (Cynodon dactylon), Surinam grass (Brachiaria decumbens), large crabgrass (Digitaria sanguinalis), green foxtail (Setaria viridis), goosegrass (Eleusine indica), johnsongrass (Sorghum halepense), kochia (Kochia scoparia), pitted morningglory (Ipomoea lacunosa), purple nutsedge (Cyperus rotundus), common ragweed (Ambrosia elation), mustard (Brassica nigra), guineagrass (Panicum maximum), […] (Paspalum dilatatum), barnyardgrass (Echinochloa crus-galli), southern sandbur (Cenchrus echinatus), common sowthistle (Sonchus oleraceous), prickly […] spinosa), Italian ryegrass (Lolium multiflorum), common purslane (Portulaca oleracea), broadleaf signalgrass (Brachiaria platyphylla), common groundsel (Senecio vulgaris), common chickweed (Stellaria media), Virginia dayflower (Commelina virginica), annual bluegrass (Poa annua), naked crabgrass (Digitaria nuda), […] cochinchinensis), quackgrass (Elytrigia repens), Canada horseweed (Conyza canadensis), field bindweed (Convolvulus arvensis), […] (Bidens bipinnata), common mallow (Malva sylvestris), Russian thistle (Salsola kali), and sugarcane (Saccharum officinarum) were planted and treated preemergence with test chemicals formulated in a non-phytotoxic solvent mixture which included a surfactant. At a different time, sugarcane was treated with postemergence applications of some of the test chemicals formulated in the same manner. Plants were approximately 3- to 4-leaf stage for the postemergence treatments. Treated plants and controls were maintained in a greenhouse for 14 to 21 days, after which time all species were compared to controls and visually evaluated. […] A dash (-) response means no test result.

The next test has as its system blackgrass. Briefly: Test D preemergence test. It is filed as in vivo, Alopecurus myosuroides. The conditions noted are these: scale 0 to 100. The text has this: (§1) Seeds of plant species selected from annual bluegrass (Poa annua), blackgrass (Alopecurus myosuroides), downy bromegrass (Bromus tectorum), field violet (Viola arvensis), green foxtail (Setaria viridis), Italian ryegrass (Lolium multiflorum), littleseed canarygrass (Phalaris minor), spring wheat (Triticum aestivum), wild oat (Avena fatua), […]), winter barley (Hordeum vulgare), and winter wheat (Triticum aestivum) were planted and treated preemergence with test chemicals formulated in a non-phytotoxic solvent mixture which included a surfactant. […] A dash (-) response means no test result.

For a further test, the system named is green foxtail. Briefly: Test D preemergence test. It is filed as in vivo, Setaria viridis. As to conditions: scale 0 to 100.
From the text: as §1

The test system of test [1] is barnyardgrass. Briefly: Test G preemergence test. It is filed as in vivo, Echinochloa crus-galli. As to conditions: scale 0 to 100.
The next test relates to corn. Briefly: Test G preemergence test. As to conditions: scale 0 to 100. It is filed as in vivo, Zea mays.
A further test relates to field sandbur. Briefly: Test G preemergence test. It is filed as in vivo, Cenchrus incertus. The conditions noted are these: scale 0 to 100.
A further test deals with lambsquarters. Put plainly: Test G preemergence test. It is filed as in vivo, Chenopodium album. The conditions noted are these: scale 0 to 100.
The next test concerns tall waterhemp. Briefly: Test G preemergence test. It is filed as in vivo, Amaranthus tuberculatos. The conditions noted are these: scale 0 to 100.
Another test concerns ducksalad. Briefly: Test E flooded paddy test. It is filed as in vivo, Heteranthera limosa. The conditions noted are these: Flood, after 21 days, scale 0 to 100. From the text: (§2) Three plastic pots (ca. 16-cm diameter) per rate were partially filled with sterilized Tama silt loam soil comprising a 35:50:15 ratio of sand, silt and clay and 2.6% organic matter. Separate plantings for each of the three pots were as follows. Seeds from the U.S. of ducksalad (Heteranthera limosa), smallflower umbrella sedge (Cyperus difformis) and purple […] coccinea), were planted into one 16-cm pot for each rate. […] Seeds from the U.S. of barnyardgrass (Echinochloa crus-galli), late watergrass (Echinochloa oryzicola), early watergrass (Echinochloa oryzoides) and junglerice (Echinochloa colona) were planted into one 16-cm pot for each rate. Plantings were sequential so that crop and weed species were at the 2.0 to 2.5-leaf stage at time of treatment. Potted plants were grown in a greenhouse with day/night temperature settings of 30/27° C., and supplemental balanced lighting was provided to maintain a 16-hour photoperiod. Test pots were maintained in the greenhouse until test completion. At time of treatment, test pots were flooded to 3 cm above the soil surface, treated by application of test compounds directly to the paddy water, and then maintained at that water depth for the duration of the test. Effects of treatments on rice and weeds were visually evaluated by comparison to untreated controls after 21 days. […] A dash (-) response means no test result.

In test [2] the test system is barnyardgrass. Put plainly: Test E flooded paddy test. It is filed as in vivo, Echinochloa crus-galli. The conditions noted are these: Flood, after 21 days, scale 0 to 100.
From the text: as §2

The subject of a further test is junglerice. Put plainly: Test E flooded paddy test. It is filed as in vivo, Echinochloa colona. The conditions noted are these: Flood, after 21 days, scale 0 to 100.
From the text: as §2

For the compound `Cn1nc(C(F)(F)F)c(C[S+]([O-])c2cccc[n+]2[O-])c1OCC(F)(F)F` (racemic) [Compound 28], the “Plant response rating, Sugarcane” value in the test with sugarcane (125 g ai/ha) is 17; with sugarcane (500 g ai/ha) it was 68.
As for `Cc1cc[n+]([O-])c(S(=O)(=O)C(C)c2c(C(F)(F)F)nn(C)c2Cl)c1` (racemic) [Compound 14], the “Plant response rating, Blackgrass” value in the test on blackgrass (31 g ai/ha) was 0; with blackgrass (62 g ai/ha), 40; with blackgrass (125 g ai/ha), 40; in the test with blackgrass (250 g ai/ha) it was 95. In addition, the “Plant response rating, Foxtail, Green” value amounted to 0 with green foxtail (31 g ai/ha), 20 in the test with green foxtail (62 g ai/ha), 65 with green foxtail (125 g ai/ha) and 80 in the test with green foxtail (250 g ai/ha). For the same compound, the “Plant response rating, Barnyardgrass” value is 0 in the test on barnyardgrass [1] (31 g ai/ha), 45 with barnyardgrass [1] (62 g ai/ha), 70 in the test with barnyardgrass [1] (125 g ai/ha) and 100 in the test on barnyardgrass [1] (250 g ai/ha). Further, the “Plant response rating, Corn” value with corn (31 g ai/ha) is reported as 0; in the test with corn (62 g ai/ha), 0; with corn (125 g ai/ha), 0; in the test on corn (250 g ai/ha), 35. The “Plant response rating, Sandbur” value came out at 0 in the test with field sandbur (31 g ai/ha), 20 with field sandbur (62 g ai/ha), 45 in the test on field sandbur (125 g ai/ha) and 85 with field sandbur (250 g ai/ha). Further, the “Plant response rating, Lambsquarters” value in the test on lambsquarters (31 g ai/ha) is recorded as 0; with lambsquarters (62 g ai/ha), 0; in the test on lambsquarters (125 g ai/ha), 0; with lambsquarters (250 g ai/ha) it was 40. The “Plant response rating, Waterhemp” value with tall waterhemp (31 g ai/ha) is 0; with tall waterhemp (62 g ai/ha), 0; in the test on tall waterhemp (125 g ai/ha), 0; with tall waterhemp (250 g ai/ha), 40.
Regarding `Cc1cc[n+]([O-])c(S(=O)(=O)C(Cl)c2c(C(F)(F)F)nn(C)c2Cl)c1` (racemic) [Compound 22], the “Plant response rating, Blackgrass” value is listed as 40 with blackgrass (31 g ai/ha), 40 in the test with blackgrass (62 g ai/ha) and 95 with blackgrass (250 g ai/ha). Also, the “Plant response rating, Foxtail, Green” value in the test on green foxtail (31 g ai/ha) stood at 15; in the test on green foxtail (62 g ai/ha), 40; in the test with green foxtail (125 g ai/ha), 95; in the test on green foxtail (250 g ai/ha), 100. The “Plant response rating, Barnyardgrass” value in the test on barnyardgrass [1] (31 g ai/ha) came out at 0; with barnyardgrass [1] (62 g ai/ha), 95; with barnyardgrass [1] (125 g ai/ha), 100; in the test on barnyardgrass [1] (250 g ai/ha), 100. Besides, the “Plant response rating, Corn” value with corn (31 g ai/ha), with corn (62 g ai/ha), in the test on corn (125 g ai/ha) and in the test with corn (250 g ai/ha) was 0 each time. Besides, the “Plant response rating, Sandbur” value in the test on field sandbur (31 g ai/ha) was found to be 15; in the test with field sandbur (62 g ai/ha), 60; in the test with field sandbur (125 g ai/ha), 85; in the test with field sandbur (250 g ai/ha), 100. The “Plant response rating, Lambsquarters” value came out at 0 in the test on lambsquarters (31 g ai/ha), 0 with lambsquarters (62 g ai/ha), 0 in the test with lambsquarters (125 g ai/ha) and 80 with lambsquarters (250 g ai/ha). The “Plant response rating, Waterhemp” value in the test on tall waterhemp (31 g ai/ha) turned out to be 0; with tall waterhemp (62 g ai/ha) it was 20; in the test on tall waterhemp (125 g ai/ha), 30; with tall waterhemp (250 g ai/ha), 100.
As to `Cn1nc(C(F)(F)F)c(C(Cl)S(=O)(=O)c2cccc[n+]2[O-])c1Cl` (stereo not drawn) [Compound 12], the “Plant response rating, Blackgrass” value is recorded as 0 in the test on blackgrass (31 g ai/ha), 0 in the test on blackgrass (62 g ai/ha), 100 in the test on blackgrass (125 g ai/ha) and 100 in the test on blackgrass (250 g ai/ha). Further, the “Plant response rating, Foxtail, Green” value with green foxtail (31 g ai/ha) amounted to 55; in the test with green foxtail (62 g ai/ha), 60; in the test with green foxtail (125 g ai/ha) it was 65; with green foxtail (250 g ai/ha) it was 100. For the same compound, the “Plant response rating, Barnyardgrass” value is given as 65 in the test on barnyardgrass [1] (31 g ai/ha), 95 in the test on barnyardgrass [1] (62 g ai/ha), 100 in the test with barnyardgrass [1] (125 g ai/ha) and 100 with barnyardgrass [1] (250 g ai/ha). Further, the “Plant response rating, Corn” value in the test with corn (31 g ai/ha), with corn (62 g ai/ha), in the test with corn (125 g ai/ha) and in the test on corn (250 g ai/ha) was 0 in each case. In addition, the “Plant response rating, Sandbur” value is reported as 85 in the test on field sandbur (31 g ai/ha), 85 with field sandbur (62 g ai/ha), 95 in the test with field sandbur (125 g ai/ha) and 100 with field sandbur (250 g ai/ha). For the same compound, the “Plant response rating, Lambsquarters” value with lambsquarters (31 g ai/ha) was 0; with lambsquarters (62 g ai/ha), 0; in the test on lambsquarters (125 g ai/ha), 0; in the test on lambsquarters (250 g ai/ha), 15. For the same compound, the “Plant response rating, Waterhemp” value is recorded as 0 in the test on tall waterhemp (31 g ai/ha), 40 in the test with tall waterhemp (62 g ai/ha), 95 in the test on tall waterhemp (125 g ai/ha) and 100 in the test on tall waterhemp (250 g ai/ha).
In the case of `Cn1nc(C(F)(F)F)c(C[S+]([O-])c2cc(Br)cc[n+]2[O-])c1Cl` (racemic) [Compound 35], the “Plant response rating, Ducksalad” value turned out to be 0 with ducksalad (16 g ai/ha); 40 in the test on ducksalad (32 g ai/ha); 50 in the test with ducksalad (64 g ai/ha); 60 with ducksalad (125 g ai/ha); 100 in the test on ducksalad (250 g ai/ha). In addition, the “Plant response rating, Barnyardgrass” value with barnyardgrass [2] (16 g ai/ha) stood at 0; in the test on barnyardgrass [2] (32 g ai/ha) it was 0; in the test with barnyardgrass [2] (64 g ai/ha), 0; with barnyardgrass [2] (125 g ai/ha), 0; with barnyardgrass [2] (250 g ai/ha), 50. Further, the “Plant response rating, Junglerice” value is 0 in the test with junglerice (16 g ai/ha); 0 in the test on junglerice (32 g ai/ha); 0 in the test on junglerice (64 g ai/ha); 0 in the test on junglerice (125 g ai/ha); 40 with junglerice (250 g ai/ha).
Regarding `C#CCOc1c(C[S+]([O-])c2cccc[n+]2[O-])c(C(F)(F)F)nn1C` (stereo not drawn) [Compound 76], the “Plant response rating, Ducksalad” value in the test on ducksalad (64 g ai/ha) is reported as 40; in the test with ducksalad (125 g ai/ha) it was 40; with ducksalad (250 g ai/ha) it was 40; in the test on ducksalad (500 g ai/ha), 95; in the test with ducksalad (1000 g ai/ha), 95. Further, the “Plant response rating, Barnyardgrass” value is on record as 0 in the test with barnyardgrass [2] (64 g ai/ha); 60 in the test on barnyardgrass [2] (125 g ai/ha); 85 with barnyardgrass [2] (250 g ai/ha); 95 in the test with barnyardgrass [2] (500 g ai/ha); 95 in the test with barnyardgrass [2] (1000 g ai/ha). The “Plant response rating, Junglerice” value in the test with junglerice (64 g ai/ha) stood at 0; with junglerice (125 g ai/ha), 60; in the test with junglerice (250 g ai/ha), 75; in the test on junglerice (500 g ai/ha), 100; in the test with junglerice (1000 g ai/ha), 100.
As to `Cc1cc[n+]([O-])c([S+]([O-])Cc2c(C(F)(F)F)nn(C)c2OCC(F)(F)F)c1` (racemic) [Compound 30], the “Sugarcane plant response rating” value with sugarcane (250 g ai/ha, postemergence, scale 0 to 100 (0 no effect, 100 complete control)) is 33. The “Plant response rating, Sugarcane” value with sugarcane (250 g ai/ha) worked out at 12.
